In brackets after ≈: the same amount, converted by molar mass. Where two headings read alike, the source gives them in different places.
Key:
C. difficile = assay: Antibacterial activity against Clostridium difficile, agar medium dilution MIC (CLSI); format: cell-based; conditions: Clostridioides difficile
[1] = system: Mycobacterium avium ATCC 700898; assay: Antibacterial activity against nontuberculous mycobacteria, resazurin MIC50; format: cell-based; conditions: ATCC700898
[2] = system: Mycobacterium intracellulare ATCC 13950; assay: as above; format: cell-based; conditions: ATCC13950
M. tuberculosis = assay: Antibacterial activity against tuberculosis bacteria, resazurin (REMA) MIC50; format: cell-based; conditions: Mycobacterium tuberculosis, read-out: MIC50
[3] = system: Mycobacterium abscessus ATCC 19977; assay: Antibacterial activity against nontuberculous mycobacteria, resazurin MIC50; format: cell-based; conditions: Mycobacteroides abscessus, ATCC19977
[4] = system: C. difficile Ribotype 027; assay: Efficacy in Clostridium difficile-infected mouse model (survival); format: in vivo; conditions: C57BL/6J mouse, 30 mg/kg orally once a day for 5 days
IL-6 = assay: Anti-inflammatory efficacy: IL-6 secretion in LPS-treated RAW 264.7 cells (ELISA); format: cell-based, mouse; conditions: RAW 264.7 cells, 5, 10, 20, 40 ug/mL plus 1 ug/ml LPS, 24 hours, versus LPS only
Description: (§1) In order to confirm the anti-inflammatory effect of the micrococcin compound (Compound 13; Micrococcin P2) prepared in Example 1 of the present invention, an inflammatory cytokine secretion amount was measured.
(§2) RAW 264.7 cells which are mouse-derived macrophage cell lines were distributed from Korean Cell Line Bank (KCLB), and a DMEM (Dulbeccon's modified Eagle's medium; PAA, Austria) medium including 1% Penicillin-Streptomycin and 10% FBS (fetal bovine serum; Gibco Laboratories) was used. Cells were cultured under the conditions of 37° C. and 5% CO2.
(§3) The cultured RAW 264.7 cells were dispensed at 2x10^5 cells/well in a 24-well plate, the micrococcin compound (Compound 13; Micrococcin P2) prepared in Example 1 was treated by concentrations (5, 10, 20, 40 ug/mL) and then treated 1 ug/ml of lipopolysaccharide (LPS), and culture was performed in an incubator (5% CO2, 37° C.) for 24 hours.
(§4) A control group was a cell group which was not treated, and as a negative control group, a cell group treated with only LPS was used.
(§5) After completion of culture, a medium of each well was collected (at 4° C., 12,000 rpm for 10 minutes) and centrifuged, a supernatant was taken, and the concentration of inflammatory cytokine (IL-6, Il-1B) in the medium was quantified using an ELISA kit (R&D system, BD).

Il-1B = assay: Anti-inflammatory efficacy: IL-1B secretion in LPS-treated RAW 264.7 cells (ELISA); format: cell-based, mouse; conditions: RAW 264.7 cells, 5, 10, 20, 40 ug/mL plus 1 ug/ml LPS, 24 hours, versus LPS only
Description: as §1, §2, §3, §4, §5

[5] = ATCC9689, C. difficile ATCC 9689, read-out: MIC
[6] = ATCC17858, C. difficile ATCC 17858, read-out: MIC
[7] = ATCC43255, C. difficile ATCC 43255, read-out: MIC
[8] = ATCC51695, C. difficile ATCC 51695, read-out: MIC
[9] = ATCCBAA1871, C. difficile ATCC BAA-1871, read-out: MIC
[10] = C. difficile Clinical isolate #1, read-out: MIC
[11] = C. difficile Clinical isolate #2, read-out: MIC
[12] = Mycobacterium avium ATCC 700898, read-out: MIC50
[13] = Mycobacterium intracellulare ATCC 13950, read-out: MIC50

| SMILES | MIC (C. difficile; [5]) [µg/mL] | MIC (C. difficile; [6]) [µg/mL] | MIC (C. difficile; [7]) [µg/mL] | MIC (C. difficile; [8]) [µg/mL] | MIC (C. difficile; [9]) [µg/mL] | MIC (C. difficile; [10]) [µg/mL] | MIC (C. difficile; [11]) [µg/mL] | MIC50 [1, 12] [µM] | MIC50 [2, 13] [µM] | also measured |
| --- | --- | --- | --- | --- | --- | --- | --- | --- | --- | --- |
| COc1c(N2C[C@@H]3CCCN[C@@H]3C2)c(F)cc2c(=O)c(C(=O)O)cn(C3CC3)c12 [MXF, Moxifloxacin] | 1 (≈ 2.49 µM) | 2 (≈ 4.98 µM) | 2 (≈ 4.98 µM) | 2 (≈ 4.98 µM) | 32 (≈ 79.7 µM) | 32 (≈ 79.7 µM) | 2 (≈ 4.98 µM) | – | – | – |
| Cc1ncc([N+](=O)[O-])n1CCO [MDZ, Metronidazole] | 1 (≈ 5.84 µM) | 1 (≈ 5.84 µM) | 2 (≈ 11.7 µM) | 2 (≈ 11.7 µM) | 2 (≈ 11.7 µM) | 1 (≈ 5.84 µM) | 2 (≈ 11.7 µM) | – | – | – |
| CC[C@H]1OC(=O)[C@H](C)[C@@H](O[C@H]2C[C@@](C)(OC)[C@@H](O)[C@H](C)O2)[C@H](C)[C@@H](O[C@@H]2O[C@H](C)C[C@H](N(C)C)[C@H]2O)[C@](C)(OC)C[C@@H](C)C(=O)[C@H](C)[C@@H](O)[C@]1(C)O [CLR, Clarithromycin] | – | – | – | – | – | – | – | 0.076 (≈ 0.0568 µg/mL) | 0.143 (≈ 0.107 µg/mL) | – |
| CN[C@H](CC(C)C)C(=O)N[C@H]1C(=O)N[C@@H](CC(N)=O)C(=O)N[C@H]2C(=O)N[C@H]3C(=O)N[C@H](C(=O)N[C@H](C(=O)O)c4cc(O)cc(O)c4-c4cc3ccc4O)[C@H](O)c3ccc(c(Cl)c3)Oc3cc2cc(c3O[C@@H]2O[C@H](CO)[C@@H](O)[C@H](O)[C@H]2O[C@H]2C[C@](C)(N)[C@H](O)[C@H](C)O2)Oc2ccc(cc2Cl)[C@H]1O [VAN, Vancomycin] | 2 (≈ 1.38 µM) | 1 (≈ 0.69 µM) | 1 (≈ 0.69 µM) | 2 (≈ 1.38 µM) | 1 (≈ 0.69 µM) | 4 (≈ 2.76 µM) | 1 (≈ 0.69 µM) | – | – | – |
| CO[C@H]1/C=C/O[C@@]2(C)Oc3c(C)c(O)c4c(O)c(c(/C=N/N5CCN(C)CC5)c(O)c4c3C2=O)NC(=O)/C(C)=C\C=C\[C@H](C)[C@H](O)[C@@H](C)[C@@H](O)[C@@H](C)[C@H](OC(C)=O)[C@@H]1C [RIF, Rifampicin] | – | – | – | – | – | – | – | 6.6 (≈ 5.43 µg/mL) | 0.38 (≈ 0.313 µg/mL) | – |
| C/C=C(\NC(=O)c1csc(-c2csc(-c3ccc4c(n3)-c3csc(n3)[C@H]([C@@H](C)O)NC(=O)c3csc(n3)[C@H](C(C)C)NC(=O)c3csc(n3)/C(=C/C)NC(=O)[C@H]([C@@H](C)O)NC(=O)c3csc-4n3)n2)n1)C(=O)NCC(C)=O [Micrococcin P2] | 0.5 (≈ 0.438 µM) | 1 (≈ 0.875 µM) | 2 (≈ 1.75 µM) | – | 1 (≈ 0.875 µM) | 1 (≈ 0.875 µM) | 1 (≈ 0.875 µM) | – | – | MIC50 (M. tuberculosis; H37RV, M. tuberculosis H37Rv): 0.089 µM (≈ 0.102 µg/mL); MIC50 (M. tuberculosis; Pan-susceptible isolate #2 (Pan-S2)): 0.199 µM (≈ 0.227 µg/mL); MIC50 (M. tuberculosis; Pan-susceptible isolate #4 (Pan-S4)): 0.356 µM (≈ 0.407 µg/mL); MIC50 (M. tuberculosis; Pan-susceptible isolate #6 (Pan-S6)): 0.354 µM (≈ 0.404 µg/mL); MIC50 (M. tuberculosis; Pan-susceptible isolate #7 (Pan-S7)): 0.208 µM (≈ 0.238 µg/mL); MIC50 ([1]; Mycobacterium avium): 0.028 µM (≈ 0.032 µg/mL); MIC50 ([2]; Mycobacterium intracellulare): 0.033 µM (≈ 0.0377 µg/mL); MIC50 [3]: 0.654 µM (≈ 0.747 µg/mL); MIC (C. difficile; ATCC51695): 1 µg/mL (≈ 0.875 µM); death by C. difficile recurrence after drug administration ([4]; followed about 2 weeks): no death individual occurred by C. difficile recurrence; survival rate ([4]; survival followed about 2 weeks): 100%; secretion amount of IL-6 (IL-6): significantly decreased; secretion amount of IL-1B (Il-1B): significantly decreased |
